In patent US12104178B2, “DHFR tunable protein regulation” (Obsidian Therapeutics, Inc., priority 2017, dated 2024):
Several values for one entry are separate records, joined by “and”; a condition that tells them apart may be missing. Equal entries are not always repeated. Entries after “also recorded” stand apart in the source; their conditions may differ.

Tests used:
HCT-116 cells [1] = assay: TMP dose response of IL15-IL15Ra surface expression (FACS); assay type: cell-based, human; conditions: 24 h
Text: Surface expression of IL15-IL15Ra fusion constructs was quantified by FACS using IL15Ra-PE antibody.
Surface expression of IL15-IL15Ra fusion construct was quantified by FACS using IL15Ra-PE antibody.

HEK-293T cells = assay: IL15 western blot of DD IL15-IL15Ra, transient transfection; assay type: cell-based, human; conditions: 10 μM Trimethoprim or 1 μM Shield-1, 24 h
Protocol: To test ligand dependent IL15-IL15Ra production, 1 million HEK-293T cells were plated in a 6-well plate in growth media containing DMEM and 10 FBS and incubated overnight at 37° C., 5% CO2. […] Cells were harvested and IL15 levels are analyzed via western blotting using human IL15 antibody (Abcam, Cambridge, UK).

HEK293T cells = assay: Surface IL15 and IL15Ra FACS, transient transfection; assay type: cell-based, human; conditions: Shield-1 or Trimethoprim
Protocol: 48 hours after transfection, cells were analyzed using FACS.

HCT-116 cells [2] = assay: Time course of IL15-IL15Ra surface expression with TMP; assay type: cell-based, human; conditions: 10 μM TMP
Protocol: The time course of ligand dependent stabilization of IL15-IL15Ra fusion constructs was measured in HCT-116 cells.

HCT116 cells [3] = assay: IL15Ra immunoblot, TMP dose response; assay type: cell-based, human; conditions: TMP 10, 33, 100 μM, 24 h
Text: Cell lysates were obtained and immunoblotted with anti IL15Ra antibody.
Cell lysates were immunoblotted with anti IL15Ra antibody.

primary T cells = assay: Regulated expression of IL15-IL15Ra in T cells (FACS); assay type: cell-based, human
Protocol: The transduction was carried out at two different lentivirus concentrations, 5 μl and 20 μl for the DD regulated construct using Lentiboost™ (Sirion Biotech, Germany). […] Samples were analyzed with an anti IL15Ra antibody using FACS. Additional controls samples such as cells treated with Lentiboost only, untransduced cells treated with DMSO or TMP, and Isotype controls were included in the FACS analysis. […] In both figures, DMSO-A and TMP-A represent cells treated with 5 μl of lentivirus and DMSO-B and TMP-B represent cells treated with 20 μl of lentivirus. […] Additionally, very low levels of IL15Ra were detected in the DMSO treated samples under the same conditions as well as in the untransduced T cells.
IL15Ra expression was measured using FACS.

CD4 positive T cells = assay: Kinetics of IL15Ra surface expression in T cells with TMP (Table 92); assay type: cell-based, human; conditions: for Stabilization ratio: TMP vs DMSO;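 as to all read-outs here: CD4 positive T cells, CD3/CD28 bead-activated and lentivirally transduced with DD-IL15-IL15Ra, read for surface IL15Ra positivity, stabilization ratio is fold change of ligand over DMSO, untransduced cells as negative control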
HCT116 tumors = assay: HCT116 OT-IL15-009 tumors in mice, IL15-IL15Ra western blot and TMP levels; assay type: in vivo, BALB/c nude mice; conditions: TMP 100 then 300 mg/kg orally twice a day, 17 days
HCT116 cells [4] = assay: IL15 shedding into media, ELISA and MSD; assay type: cell-based, human; conditions: TMP doses
Protocol: To test if IL15 is shed into the media, supernatant from HCT116 cells expressing IL15-IL15Ra fusion constructs was subject to immunoassays such as ELISA and MSD (Rockville, Maryland). In FIG. 54B, OD indicates optical density. IL15 was measured in the media of cells expressing IL15-IL15Ra fusion constructs.

HCT116 cells [5] = assay: IL15-IL15Ra in vivo tumor study (xenograft); conditions: 5 million HCT116 cells s.c., nude mice
Protocol: The functional capability of IL15-IL15Ra constructs was tested in vivo in xenograft assays. The experiment was designed to test the hypothesis that pulsatile expression of IL15-IL15Ra fusion proteins from cancer cell lines such as HCT116, in mice may stimulate the mouse's NK cells to attack the tumor leading to tumor growth inhibition. […] Tumors were allowed to develop over a period of 22 days.
Mice injected with OT-IL15-009 expressing cells were left untreated, or treated with vehicle control or TMP.

OT-IL15-009: IL15-IL15Ra fusion with ecDHFR (R12Y, Y100I) DD
Median Fluorescence Intensity, surface IL15-IL15Ra (HCT-116 cells [1]; DMSO): 1260
Median Fluorescence Intensity, surface IL15-IL15Ra (HCT-116 cells [1]; TMP 0.01 μM): 1384
Median Fluorescence Intensity, surface IL15-IL15Ra (HCT-116 cells [1]; TMP 0.02 μM): 1492
Median Fluorescence Intensity, surface IL15-IL15Ra (HCT-116 cells [1]; TMP 0.05 μM): 1947
Median Fluorescence Intensity, surface IL15-IL15Ra (HCT-116 cells [1]; TMP 0.14 μM): 2741
Median Fluorescence Intensity, surface IL15-IL15Ra (HCT-116 cells [1]; TMP 0.41 μM): 3360
Median Fluorescence Intensity, surface IL15-IL15Ra (HCT-116 cells [1]; TMP 3.7 μM): 4265
Median Fluorescence Intensity, surface IL15-IL15Ra (HCT-116 cells [1]; TMP 11.11 μM): 4267
Median Fluorescence Intensity, surface IL15-IL15Ra (HCT-116 cells [1]; TMP 33.33 μM): 4485
Median Fluorescence Intensity, surface IL15-IL15Ra (HCT-116 cells [1]; TMP 100 μM): 4633
Median Fluorescence Intensity, surface IL15-IL15Ra (HCT-116 cells [1]; TMP […]): 4014
IL15 stabilization by western blot (FIG. 24A) (HEK-293T cells): strong ligand (Trimethoprim) dependent stabilization of IL15
Surface expression of IL15 and IL15Ra (FIG. 24B, 24C) (HEK293T cells): strong ligand (Trimethoprim) dependent surface expression of IL15 and IL15Ra
MFI, surface IL15-IL15Ra (HCT-116 cells [2]; 0 h): 4004
MFI, surface IL15-IL15Ra (HCT-116 cells [2]; 12 h): 7054
MFI, surface IL15-IL15Ra (HCT-116 cells [2]; 16 h): 9390
MFI, surface IL15-IL15Ra (HCT-116 cells [2]; 24 h): 14056
MFI, surface IL15-IL15Ra (HCT-116 cells [2]; 48 h): 28644
MFI, surface IL15-IL15Ra (HCT-116 cells [2]; 72 h): 35303
IL15Ra expression by immunoblot (FIG. 26, 27, 54A) (HCT116 cells [3]): virtually undetectable in the absence of TMP, and addition of increasing doses of TMP resulted in an increase in IL15Ra levels
IL15Ra expression in T cells (FIG. 35) (primary T cells; 10 μM TMP 24/48 h or 0.156-160 μM 24 h): increase in the expression of IL15Ra in T cells with both doses of lentivirus used; also recorded: An increase in the percentage of IL15Ra cells with increasing doses of TMP was observed
% Positive cells, IL15Ra positive (primary T cells; T cells, surface expression): 15.8%
% Positive cells, IL15 and IL15Ra positive (primary T cells; T cells, surface expression): 0.51%
% Positive cells, IL15 positive (primary T cells; T cells, surface expression): 0.60%
Percentage of IL15Ra positive cells (CD4 positive T cells; 100 μM TMP): 16.6% and 16%
Proportion of CD4 T cells with surface IL15Ra over time (FIG. 48) (CD4 positive T cells; 100 μM TMP, 1-24 h): from 4 hrs after TMP treatment, the cells transduced with the OT-IL15-009 construct and treated with TMP exhibited an increased proportion of cells with surface expression of IL15Ra
percentage of IL15Ra positive CD4 positive T cells, TMP (CD4 positive T cells; 100 μM TMP, 1 hours): 1.86
percentage of IL15Ra positive CD4 positive T cells, TMP (CD4 positive T cells; 100 μM TMP, 2 hours): 2.27
percentage of IL15Ra positive CD4 positive T cells, TMP (CD4 positive T cells; 100 μM TMP, 4 hours): 4.01
percentage of IL15Ra positive CD4 positive T cells, TMP (CD4 positive T cells; 100 μM TMP, 6 hours): 5.85
percentage of IL15Ra positive CD4 positive T cells, TMP (CD4 positive T cells; 100 μM TMP, 8 hours): 7.09
percentage of IL15Ra positive CD4 positive T cells, TMP (CD4 positive T cells; 100 μM TMP, 15 hours): 12.53
percentage of IL15Ra positive CD4 positive T cells, TMP (CD4 positive T cells; 100 μM TMP, 22 hours): 14.57
percentage of IL15Ra positive CD4 positive T cells, TMP (CD4 positive T cells; 100 μM TMP, 24 hours): 13.75
percentage of IL15Ra positive CD4 positive T cells, DMSO (CD4 positive T cells; 1 hours): 2.03
percentage of IL15Ra positive CD4 positive T cells, DMSO (CD4 positive T cells; 2 hours): 2.12
percentage of IL15Ra positive CD4 positive T cells, DMSO (CD4 positive T cells; 4 hours): 1.99
percentage of IL15Ra positive CD4 positive T cells, DMSO (CD4 positive T cells; 6 hours): 1.87
percentage of IL15Ra positive CD4 positive T cells, DMSO (CD4 positive T cells; 8 hours): 2.14
percentage of IL15Ra positive CD4 positive T cells, DMSO (CD4 positive T cells; 15 hours): 2.46
percentage of IL15Ra positive CD4 positive T cells, DMSO (CD4 positive T cells; 22 hours): 2.78
percentage of IL15Ra positive CD4 positive T cells, DMSO (CD4 positive T cells; 24 hours): 2.07
Stabilization ratio (CD4 positive T cells; 1 hours): 0.92
Stabilization ratio (CD4 positive T cells; 4 hours): 2.02
Stabilization ratio (CD4 positive T cells; 6 hours): 3.13
Stabilization ratio (CD4 positive T cells; 8 hours): 3.31
Stabilization ratio (CD4 positive T cells; 15 hours): 5.09
Stabilization ratio (CD4 positive T cells; 22 hours): 5.24
Stabilization ratio (CD4 positive T cells; 24 hours): 6.64
Percentage of IL15Ra positive cells (CD4 positive T cells; untreated T cells): 1.68% and 1%
IL15-IL15Ra in tumors by western blot (FIG. 49) (HCT116 tumors): elevated levels of IL15-IL15Ra expression, compared to tumors treated with the vehicle
IL15 levels in the media (FIG. 54B, 54C) (HCT116 cells [4]): TMP dose dependent increase in IL15 levels detected in the media
Tumor growth (FIG. 55) (HCT116 cells [5]): mice treated with TMP had smaller tumors than mice of the other two groups
